Test results from PubChem BioAssay AID179 (DTP/NCI, 2004).
pEC50, pIC50: −log10 of the molar value. Values joined by “and” are separate entries in the source; they are usually repeats but may differ in a detail not shown here. Equal values may be shown once. Active and inactive are the calls of the source.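 How the source made its calls: active means compounds giving half or more protection of infected cells from virus-caused growth loss, again on retest; inactive means the rest.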 Where a SMILES comes first, the peptide text is derived from it. The star is where a group is joined. Boc = CC(C)(C)OC(=O)*

Test system: CEM cells HIV-1 protection, formazan growth assay
Assay: NCI AIDS Antiviral Assay
Details: for pIC50: measured here: growth of uninfected CEM cells
Outline: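 Category rules: moderately active means at least 50% protection on retest, and confirmed active means 100% protection reproducibly. The underlying data came from a formazan growth assay in HIV-1-infected CEM cells.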

SMILES | outcome | pEC50 | pIC50
O=[N+]([O-])c1ccc(/C=C/c2ccc([N+](=O)[O-])cc2S(=O)(=O)O)c(S(=O)(=O)O)c1 | inactive |  | 
NC(=O)C(N)(c1ccccc1)c1ccccc1 | inactive |  | 
CCN(CC)C1=CC(=O)c2nc(C)c(C)nc2C1=O | inactive |  | 
O=c1cc2ccccc2nn1Cc1ccccc1 |  | < 4.66 | < 4.66
Cc1ccc(/C=C/C(=O)c2sc(-c3cccnc3)nc2C)cc1 |  | < 4.65 | < 4.65
CC(NCCCNC(C)C(=O)O)C(=O)O (stereo not drawn) |  | < 3.18 | < 3.18
CCOC(=S)NP(=O)(NC(=S)OCC)NC(=S)OCC |  | < 3.70 | < 3.70
COc1cc2c(cc1OC)C(C1C(=O)CC(C)(C)CC1=O)NCC2 (stereo not drawn) | inactive |  | 
Clc1ccc2sc(-n3ccc4ccccc43)nc2c1 |  | < 3.70 | 3.77
CC(C)(C)C1=C(Br)C(F)(C(C)(C)C)OP1(=O)c1ccccc1 (stereo not drawn) |  | < 3.70 | 4.59
COC(=O)c1cc2c(cc1CC1Cc3cc4c(cc3C1)CCC4)CCC2 |  | < 3.70 | < 3.70
N#CC1=C(N)n2c(s/c(=C\c3ccc(Cl)cc3)c2=O)=C(c2nc3ccccc3[nH]2)C1c1ccc(Cl)cc1 (stereo not drawn) |  | < 5.30 | < 5.30
O=c1ssc2ccccc12 |  | < 3.70 | 3.92
COc1cccc(C2NC(=S)N3C(c4cccc(OC)c4)NC(=S)N23)c1 (stereo not drawn) | inactive |  | 
CCOC(=O)CSc1ccnc(=O)[nH]1 |  | < 3.07 | < 3.07
CSC(=Nc1ccccc1Cl)NC(=O)c1ccc(Br)cc1 |  | < 4.99 | < 4.99
O=C(/C(=C\C(=O)c1cccs1)c1ccsc1)c1ccc(Br)cc1 | inactive |  | 
CC(=O)Oc1ccc(/C=C/C(=O)OCCOC(=O)/C=C/c2ccc(OC(C)=O)c(OC(C)=O)c2)cc1OC(C)=O |  | < 4.70 | 5.06
CCO/C(=C/C(=O)OC)NCCc1c[nH]c2ccccc12 |  | < 3.86 | 3.87
C=C(C(=O)O)C1CCC(CC/C=C(\C)CC/C=C(\C)CCC=C(C)C)CO1 (stereo not drawn) |  | < 3.70 | 5.21
CN1CCn2c(Br)ccc2C1=O |  | < 2.96 | 4.19
Nc1ccccc1/C=C1/Sc2cc[nH]c2C1=O |  | < 4.20 | < 4.20

SMILES | outcome | pEC50 | pIC50
CCOC(=O)c1c(NC(=O)c2cccs2)sc2c1CCC2 |  | 3.71 | < 3.70
Cc1cn(C2CC3OP(=O)(OCc4ccccc4)OCC3O2)c(=O)[nH]c1=O (stereo not drawn) |  | < 5.44 | < 5.44
CN(C)c1nc(NN)c2c(-c3ccccc3)c(-c3ccccc3)oc2n1 |  | < 4.00 | < 4.00
O=C(NCCCCCCCCNC(=O)c1cnc2ccccc2n1)c1cnc2ccccc2n1 |  | < 3.40 | 4.25
O=[N+]([O-])c1ccc2nc(/C=C(\O)c3ccccc3)c(NC34CC5CC(CC(C5)C3)C4)nc2c1 |  | < 3.70 | 3.74
COC(=O)C1=C(C(=O)OC)C(Cc2ccccc2)(OO)OC1=O (stereo not drawn) |  | < 3.70 | 6.02
CC(=O)c1cc2cc3c4c(c2oc1=O)CCCN4CCC3 |  | < 4.59 | < 4.59
CC(=O)OCc1cc(OC(C)=O)cnc1COC(C)=O |  | < 3.33 | < 3.33
Cc1cc(-c2c(O)c3ccc4ccccc4c3oc2=O)no1 |  | < 4.70 | < 4.70
CN1CCCCCC(=N\O)/C(=N/O)CCCCC1 |  | < 3.01 | < 3.01
COc1cccc(OC)c1C1ON=C(c2ccccc2)N1C12CC3CC(CC(C3)C1)C2 (stereo not drawn) |  | < 3.70 | 3.85
CC1=NC(=Cc2ccc(O)cc2)C(=O)N1n1c(-c2ccccc2)nc2ccccc2c1=O |  | < 3.70 | 4.66
CCCCCCCCSCC1OC2OC3C(CSCCCCCCCC)OC(OC4C(CSCCCCCCCC)OC(OC5C(CSCCCCCCCC)OC(OC6C(CSCCCCCCCC)OC(OC7C(CSCCCCCCCC)OC(OC8C(CSCCCCCCCC)OC(OC1C(OS(=O)(=O)O)C2OS(=O)(=O)O)C(OS(=O)(=O)O)C8OS(=O)(=O)O)C(OS(=O)(=O)O)C7OS(=O)(=O)O)C(OS(=O)(=O)O)C6OS(=O)(=O)O)C(OS(=O)(=O)O)C5OS(=O)(=O)O)C(OS(=O)(=O)O)C4OS(=O)(=O)O)C(OS(=O)(=O)O)C3OS(=O)(=O)O (stereo not drawn) |  | 5.59 | 4.30
CCOC(=O)NNC(=O)NCc1cccc(CNC(=O)NNC(=O)OCC)c1 |  | < 3.70 | < 3.70
CN(C)CCn1c2ccccc2c2nc3cc4ccccc4cc3nc21 |  | < 4.30 | 6.44
CC(C)(C)OC(=O)NC(Cc1ccccc1)C(=O)N1CCCC1C(N)=O (stereo not drawn) (Boc-Phe-Pro-NH2; configuration not given here) |  | < 3.70 | < 3.70
CCCN(CCC)C(=O)c1c(N2CCN(C)CC2)c2cccnc2n2c(C)cnc12 |  | < 3.70 | < 3.70
O=C(O)c1ccc(Sc2ccccc2)cc1 |  | < 3.70 | < 3.70
CC(C)(C)[Si](C)(C)OCC1OC(n2ccc(=O)[nH]c2=O)/C(=C\C#N)C1O[Si](C)(C)C(C)(C)C (stereo not drawn) |  | < 3.70 | 4.45
CC[C@H]1CN2CCc3cc(OC)c(OC)cc3[C@@H]2C[C@@H]1C[C@H]1NCCc2cc(O)c(OC)cc21 | inactive |  | 
CCCCCCCCCCN=C(N)CSSCC(N)=NCCCCCCCCCC |  | < 3.70 | 4.78
Cc1cc(=O)[nH]c(NN2C(Cl)C(=O)C2c2cccc([N+](=O)[O-])c2)n1 (stereo not drawn) |  | < 4.27 | 4.81

SMILES | outcome | pEC50 | pIC50
COc1cc(C=O)c(-c2cc(OC)c(OC)cc2C=O)cc1OC |  | < 4.35 | < 4.35
O=S(=O)([O-])c1ccc2c(c1)-c1nc-2nc2[n-]c(nc3nc(nc4[n-]c(n1)c1ccc(S(=O)(=O)[O-])cc41)-c1cc(S(=O)(=O)[O-])ccc1-3)c1ccc(S(=O)(=O)[O-])cc21.[Cu+2].[Na+] |  | < 3.60 | 6.22
COc1ccc(CCNC(=O)CCCCCO)cc1OC |  | < 3.70 | 3.71
O=C(COc1ccc(Cl)cc1)c1ccccc1 |  | < 3.00 | < 3.00
Cc1ccc2c(c1)sc1nnc(C)n12 | inactive |  | 
CCN1CCC(C)OP1(=O)Cc1ccccc1 (stereo not drawn) |  | < 3.70 | < 3.70
CCOc1ccc(C2=NN(CC)C(=O)C(C3C(=O)N(c4ccccc4)N=C3C)C2)cc1 (stereo not drawn) |  | < 3.92 | < 3.92
CCOC(=O)N[C@H]1CCc2cc(OC)c(OC)c(OC)c2-c2ccc(SC)c(=O)cc21 |  | < 6.70 | 8.91
CCOC(=O)/C(F)=C/c1ccc(F)cc1 |  | < 3.91 | < 3.91
COc1ccc(C(c2c(O)c3ccccc3oc2=O)N2CCOCC2)cc1 (stereo not drawn) |  | < 3.70 | < 4.00
O=C1c2ccccc2C2(c3ccc(F)cc3)NCCN12 (stereo not drawn) |  | < 3.70 | 3.73
OC1COC(c2ccccc2)OC1C1OC(c2ccccc2)OC2COC(c3ccccc3)OC21 (stereo not drawn) |  | < 4.00 | < 4.00
O/N=C1/C(=C/c2ccccc2)CCCC1C(NO)c1ccccc1 (stereo not drawn) |  | < 4.09 | < 4.09
C(=Nc1ccc(SSc2ccc(N=Cc3ccccc3)cc2)cc1)c1ccccc1 |  | < 3.70 | 4.48
O=C1NC(=O)c2c3ccc(c21)CCc1ccc(c2c1C(=O)NC2=O)CC3 |  | < 4.82 | < 4.82
O=c1ccc2cc3ccoc3c(OCCCCCCBr)c2o1 |  | < 4.12 | 4.51
CC(=O)C(=Cc1cccc(C)c1)C(C)=O |  | < 3.47 | 4.75
COc1ccc(-c2c(C)c(C)[nH]c(=O)c2C(=O)O)c(OCc2ccccc2)c1OC | inactive |  | 
C1=CNc2ccccc2N=C1 |  | < 3.70 | < 3.70
CCOC(=O)CN1C(=O)NC(C)(c2ccccc2)C1=O (stereo not drawn) |  | < 3.70 | < 3.70
CC(C)(C)c1ccc(-n2c3nc(=O)n(-c4ccccc4CO)c(=O)c-3cc3ccccc32)cc1 |  | < 3.70 | 4.63
CNc1ccc(S(=O)Nc2ccc(OC)cc2)cc1 (stereo not drawn) |  | < 3.70 | 4.75

SMILES | outcome | pEC50 | pIC50
CN(C)c1nc(N)c(N=O)c(=O)[nH]1 |  | < 3.70 | 3.75
Cc1cc(C2=CSC3=NCCN23)ccc1Cl |  | < 3.70 | 3.82
O=c1[nH]cnc2c1ncn2C1CC(O)C(CO)(C(F)(F)F)O1 (stereo not drawn) |  | < 3.70 | 3.88
CN(C)CC/C=C1\c2ccccc2CN(C)c2ccccc21 |  | < 3.70 | 4.48
COc1ccc(OC)c(CSc2ccc(OC)c(OC)c2)c1 |  | < 3.70 | 4.07
Cc1cc(O)c2c(oc3cc(O)c4c(c32)COC4=O)c1C(=O)O |  | < 4.25 | 4.73
CCOC(=O)NC(=O)c1cn(C(CC)COC(=O)NCCCCCCNC(=O)OCC(CC)n2cc(C(=O)NC(=O)OCC)c(=O)[nH]c2=O)c(=O)[nH]c1=O (stereo not drawn) | inactive |  | 
NS(=O)(=O)c1ccc(SSc2ccc(S(N)(=O)=O)cc2[N+](=O)[O-])c([N+](=O)[O-])c1 |  | 4.51 | 3.71
CCOC(=O)c1cc2c([nH]1)c(OC(C)=O)cc1c2ccn1Cc1ccccc1 |  | < 3.70 | < 3.70
CCCCCCN1CCN(Cc2ccc(N(CC)CC)cc2)C(=O)C1=O |  | < 3.70 | 6.01
CC(=O)OCC1OC(SC2=N/C(=C\c3ccc(Br)s3)C(=O)N2c2ccccc2)C(OC(C)=O)C(OC(C)=O)C1OC(C)=O (stereo not drawn) |  | < 3.70 | 3.91 and 4.47
CN1C/C(=C\c2ccncc2)C(=O)/C(=C/c2ccncc2)C1 |  | 4.28 | < 3.70
CCCCCCCC1(N=[N+]=[N-])C(=O)Nc2ccccc2C1=O (stereo not drawn) |  | < 3.70 | 4.70
O=C1Oc2c(ccc3ccccc23)C2OCNCC12 (stereo not drawn) |  | < 3.70 | 3.89
CC(=O)O[C@H]1CCC2[C@@H]3CCC4=C(O)c5nocc5C[C@]4(C)C3CC[C@@]21C (stereo partly drawn) |  | < 4.15 | 
O=[N+]([O-])c1ccc2nsnc2c1 |  | < 3.98 | 4.32
Fc1ccccc1C1SCc2nc3ncccc3n21 (stereo not drawn) |  | < 4.02 | < 4.02
c1ccc(SC2=C(Sc3ccccc3)CC2)cc1 |  | < 3.70 | 4.05
Cc1cc(N=O)cc(C)c1O |  | < 3.70 | 5.29
CCCCC1(N=[N+]=[N-])C(=O)c2cccc3c2N(CCC3)C1=O (stereo not drawn) |  | < 3.70 | < 3.70
COc1c(Br)cc(Br)c(OC)c1-c1[nH]c(Br)c(Br)c1Br |  | < 4.78 | < 4.78
